Measured values as given in PubChem BioAssay AID328 (DTP/NCI, 2004).
“And” between values parts separate entries of the source, which are not always exact repeats. Equal entries are not always repeated. Inconclusive results and toxic doses are left out. Rule for the calls: active = survival T/C of 150% or more; inactive = T/C below 125% in these data.

System: BDF1 mice, P388 leukemia ip, median survival T/C
Test: NCI In Vivo Anticancer Drug Screen. Data for tumor model P388 Leukemia (intraperitoneal) in B6D2F1 (BDF1) mice
Settings: endpoint: median survival time, higher = longer survival
Procedure, shortened: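 Compound-treated tumour-bearing mice were compared with vehicle-treated controls. Survival was recorded, and the value is the treated-group measurement divided by the control-group measurement (T/C).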

[1] = dose: 100.0 mg/kg/injection, schedule: Q01DX009 (ip), vehicle: saline
[2] = dose: 200.0 mg/kg/injection, schedule: Q01DX009 (ip), vehicle: saline
[3] = dose: 12.5 mg/kg/injection, schedule: Q01DX009 (ip), vehicle: water
[4] = dose: 12.5 mg/kg/injection, schedule: Q04DX003 (ip), vehicle: water
[5] = dose: 25.0 mg/kg/injection, schedule: Q01DX009 (ip), vehicle: water
[6] = dose: 25.0 mg/kg/injection, schedule: Q04DX003 (ip), vehicle: water
[7] = dose: 50.0 mg/kg/injection, schedule: Q01DX009 (ip), vehicle: water
[8] = dose: 100.0 mg/kg/injection, schedule: Q01DX009 (ip), vehicle: water
[9] = dose: 200.0 mg/kg/injection, schedule: Q01DX009 (ip), vehicle: water
[10] = dose: 25.0 mg/kg/injection, schedule: Q01DX001 (ip), vehicle: saline with Tween-80
[11] = dose: 50.0 mg/kg/injection, schedule: Q01DX001 (ip), vehicle: saline with Tween-80
[12] = dose: 100.0 mg/kg/injection, schedule: Q01DX001 (ip), vehicle: saline with Tween-80
[13] = dose: 100.0 mg/kg/injection, schedule: Q01DX009 (ip), vehicle: saline with Tween-80
[14] = dose: 200.0 mg/kg/injection, schedule: Q01DX009 (ip), vehicle: saline with Tween-80
[15] = dose: 400.0 mg/kg/injection, schedule: Q01DX009 (ip), vehicle: saline with Tween-80
[16] = dose: 100.0 mg/kg/injection, schedule: Q04DX003 (ip), vehicle: saline with Tween-80
[17] = dose: 200.0 mg/kg/injection, schedule: Q04DX003 (ip), vehicle: saline with Tween-80
[18] = dose: 400.0 mg/kg/injection, schedule: Q04DX003 (ip), vehicle: saline with Tween-80
[19] = dose: 50.0 mg/kg/injection, schedule: Q01DX001 (ip), vehicle: Klucel (hydroxypropylcellulose) (HPC)
[20] = dose: 100.0 mg/kg/injection, schedule: Q01DX001 (ip), vehicle: Klucel (hydroxypropylcellulose) (HPC)
[21] = dose: 200.0 mg/kg/injection, schedule: Q01DX001 (ip), vehicle: saline with Tween-80

Measured: T/C

CCOc1ccc(C(/C(Cl)=N/O)C(Cl)(Cl)Cl)cc1 (stereo not given)
inactive: dose: 5.5 mg/kg/injection, schedule: Q01DX009 (ip), vehicle: Klucel (hydroxypropylcellulose) (HPC) 109 % of control | dose: 6.25 mg/kg/injection, schedule: Q04DX003 (ip), vehicle: Klucel (hydroxypropylcellulose) (HPC) 100 % of control | dose: 8.2 mg/kg/injection, schedule: Q01DX009 (ip), vehicle: Klucel (hydroxypropylcellulose) (HPC) 100 % of control | dose: 12.5 mg/kg/injection, schedule: Q04DX003 (ip), vehicle: Klucel (hydroxypropylcellulose) (HPC) 95 % of control | dose: 25.0 mg/kg/injection, schedule: Q04DX003 (ip), vehicle: Klucel (hydroxypropylcellulose) (HPC) 100 % of control | dose: 35.0 mg/kg/injection, schedule: Q04DX003 (ip), vehicle: Klucel (hydroxypropylcellulose) (HPC) 120 % of control | dose: 55.0 mg/kg/injection, schedule: Q04DX003 (ip), vehicle: Klucel (hydroxypropylcellulose) (HPC) 110 % of control | dose: 80.0 mg/kg/injection, schedule: Q04DX003 (ip), vehicle: Klucel (hydroxypropylcellulose) (HPC) 110 % of control | dose: 120.0 mg/kg/injection, schedule: Q04DX003 (ip), vehicle: Klucel (hydroxypropylcellulose) (HPC) 100 % of control

Fc1ccc(C(Cl)Cl)cc1
inactive: [1] 104 % of control | [2] 109 % of control | dose: 400.0 mg/kg/injection, schedule: Q01DX009 (ip), vehicle: saline 118 % of control

Cc1cn(C)c2nccnc12
inactive: [3] 100 % of control | [4] 102 % of control | [5] 107 % of control | [6] 96 % of control | [7] 98 % of control | dose: 50.0 mg/kg/injection, schedule: Q04DX003 (ip), vehicle: water 112 % of control | [8] 100 % of control | dose: 100.0 mg/kg/injection, schedule: Q04DX003 (ip), vehicle: water 117 % of control | [9] 104 % of control | dose: 200.0 mg/kg/injection, schedule: Q04DX003 (ip), vehicle: water 98 % of control | dose: 300.0 mg/kg/injection, schedule: Q04DX003 (ip), vehicle: water 94 % of control

COC(=O)C1(C)CC2C(C)(CCC3(C)C4=CC=C5C(=CC(=O)C(O)=C5C)C4(C)CCC23C)CC1O (stereo not given)
inactive: [10] 109 % of control | [11] 91 % of control | [12] 104 % of control

O=[N+]([O-])c1ccccc1N=N/C(Cc1ccccc1)=N\Nc1ccccc1
inactive: dose: 100.0 mg/kg/injection, schedule: Q01DX009 (ip), vehicle: Klucel (hydroxypropylcellulose) (HPC) 120 % of control | dose: 200.0 mg/kg/injection, schedule: Q01DX009 (ip), vehicle: Klucel (hydroxypropylcellulose) (HPC) 115 % of control

CS(=O)(=O)OCC(O)C(O)COS(C)(=O)=O (stereo not given)
inactive: dose: 50.0 mg/kg/injection, schedule: Q01DX010 (ip), vehicle: saline 109 % of control | [13] 91 % of control | dose: 100.0 mg/kg/injection, schedule: Q01DX010 (ip), vehicle: saline 109 % of control | [14] 100 % of control | dose: 200.0 mg/kg/injection, schedule: Q01DX010 (ip), vehicle: saline 100 % of control | [15] 87 % of control
active: dose: 400.0 mg/kg/injection, schedule: Q01DX010 (ip), vehicle: saline 209 % of control | dose: 800.0 mg/kg/injection, schedule: Q01DX010 (ip), vehicle: saline 163 % of control

O=C(O)C1CCC2(CCCCC2)CC1
inactive: dose: 6.25 mg/kg/injection, schedule: Q01DX009 (ip), vehicle: water 106 % of control | [3] 100 % of control | [4] 104 % of control | [5] 113 % of control and 117 % of control | [6] 94 % of control and 106 % of control and 116 % of control | [7] 99 % of control and 106 % of control | [8] 94 % of control and 100 % of control | [9] 88 % of control

O=[N+]([O-])c1ccc(-c2nc3ncccn3n2)cc1
inactive: [16] 90 % of control | [17] 100 % of control | [18] 100 % of control

NC(=O)N/N=C1/CCCC(C(=O)O)C1 (stereo not given)
inactive: [19] 91 % of control | [20] 116 % of control | dose: 200.0 mg/kg/injection, schedule: Q01DX001 (ip), vehicle: Klucel (hydroxypropylcellulose) (HPC) 91 % of control | dose: 400.0 mg/kg/injection, schedule: Q01DX001 (ip), vehicle: Klucel (hydroxypropylcellulose) (HPC) 95 % of control

CC1(C)CS(=O)(=O)CC1=O
inactive: dose: 25.0 mg/kg/injection, schedule: Q01DX001 (ip), vehicle: Klucel (hydroxypropylcellulose) (HPC) 100 % of control | [19] 100 % of control | [20] 90 % of control and 104 % of control

CN1CCC=C(C(=O)N(c2ccccc2)c2ccccc2)C1
inactive: dose: 50.0 mg/kg/injection, schedule: Q04DX003 (ip), vehicle: saline 95 % of control | dose: 100.0 mg/kg/injection, schedule: Q04DX003 (ip), vehicle: saline 100 % of control | dose: 200.0 mg/kg/injection, schedule: Q04DX003 (ip), vehicle: saline 100 % of control

COC(=O)C1CSC2(CCCN(Cc3ccccc3)C2)N1 (stereo not given)
inactive: dose: 50.0 mg/kg/injection, schedule: Q01DX009 (ip), vehicle: saline 113 % of control | [1] 119 % of control | [2] 96 % of control

O=C(Nc1nc(Cl)nc(Cl)n1)N1CCOCC1
inactive: dose: 6.25 mg/kg/injection, schedule: Q01DX009 (ip), vehicle: saline with Tween-80 104 % of control | dose: 9.0 mg/kg/injection, schedule: Q01DX009 (ip), vehicle: saline with Tween-80 103 % of control | dose: 12.0 mg/kg/injection, schedule: Q01DX009 (ip), vehicle: saline with Tween-80 112 % of control | dose: 12.5 mg/kg/injection, schedule: Q04DX003 (ip), vehicle: saline with Tween-80 118 % of control | dose: 18.0 mg/kg/injection, schedule: Q01DX009 (ip), vehicle: saline with Tween-80 112 % of control | dose: 25.0 mg/kg/injection, schedule: Q04DX003 (ip), vehicle: saline with Tween-80 109 % of control

CC1CC2OC(=O)C3=C2C(CCC3)C12CC(c1ccoc1)OC2=O (stereo not given)
inactive: [10] 111 % of control | [11] 106 % of control | [12] 106 % of control | [21] 116 % of control

CN(C)c1ccc(-c2cc[n+](C)cc2)cc1
inactive: dose: 0.5 mg/kg/injection, schedule: Q01DX009 (ip), vehicle: saline 119 % of control | dose: 1.0 mg/kg/injection, schedule: Q01DX009 (ip), vehicle: saline 111 % of control | dose: 2.0 mg/kg/injection, schedule: Q01DX009 (ip), vehicle: saline 91 % of control | dose: 3.0 mg/kg/injection, schedule: Q01DX009 (ip), vehicle: saline 106 % of control | dose: 6.0 mg/kg/injection, schedule: Q01DX009 (ip), vehicle: saline 114 % of control

NC(=O)c1ncccc1C(=O)O
inactive: [12] 103 % of control | [21] 100 % of control | dose: 400.0 mg/kg/injection, schedule: Q01DX001 (ip), vehicle: saline with Tween-80 96 % of control

O=C(/C=C/c1ccc(F)cc1)c1ccc(Cl)cc1
inactive: [13] 90 % of control | [14] 90 % of control | [15] 100 % of control

CCOC(=O)c1c[nH]c(=O)c([N+](=O)[O-])c1O
inactive: [13] 96 % of control | [16] 108 % of control | [17] 95 % of control | [18] 112 % of control
